Earlier results in US20260125514A1, “CROSSLINKED POLYMERS AND THEIR USES” (UNIVERSITÉ CÔTE D'AZUR, priority 2022, published 2026).

Settings: free, non crosslinked caulerpenyne; Parent-Massin (1996)

CC(=O)O/C=C(/C=C/OC(C)=O)[C@H](C/C=C(\C)C#CC=C(C)C)OC(C)=O [caulerpenyne, Caulerpenyne]
toxicity: toxicity
